{
  "source": "patent US11414437B2",
  "about": "“Borate compound, and synthesis method therefor and uses thereof” (CHENGDU ORIGIN BIOTECHNOLOGY LIMITED COMPANY, priority 2017, dated 2022)",
  "key": {"[1]": {"test": "High-temperature and high-humidity accelerated stability test", "assay_type": "physicochemical", "conditions": "compared with compounds 8l, MLN9708, MLN2238 of the prior art", "excerpt": "In addition, the compound of the present invention has better stability."}, "hERG potassium channel": {"target": "hERG potassium channel (Homo sapiens, UniProt Q12809)", "sequence (Q12809 whole entry)": "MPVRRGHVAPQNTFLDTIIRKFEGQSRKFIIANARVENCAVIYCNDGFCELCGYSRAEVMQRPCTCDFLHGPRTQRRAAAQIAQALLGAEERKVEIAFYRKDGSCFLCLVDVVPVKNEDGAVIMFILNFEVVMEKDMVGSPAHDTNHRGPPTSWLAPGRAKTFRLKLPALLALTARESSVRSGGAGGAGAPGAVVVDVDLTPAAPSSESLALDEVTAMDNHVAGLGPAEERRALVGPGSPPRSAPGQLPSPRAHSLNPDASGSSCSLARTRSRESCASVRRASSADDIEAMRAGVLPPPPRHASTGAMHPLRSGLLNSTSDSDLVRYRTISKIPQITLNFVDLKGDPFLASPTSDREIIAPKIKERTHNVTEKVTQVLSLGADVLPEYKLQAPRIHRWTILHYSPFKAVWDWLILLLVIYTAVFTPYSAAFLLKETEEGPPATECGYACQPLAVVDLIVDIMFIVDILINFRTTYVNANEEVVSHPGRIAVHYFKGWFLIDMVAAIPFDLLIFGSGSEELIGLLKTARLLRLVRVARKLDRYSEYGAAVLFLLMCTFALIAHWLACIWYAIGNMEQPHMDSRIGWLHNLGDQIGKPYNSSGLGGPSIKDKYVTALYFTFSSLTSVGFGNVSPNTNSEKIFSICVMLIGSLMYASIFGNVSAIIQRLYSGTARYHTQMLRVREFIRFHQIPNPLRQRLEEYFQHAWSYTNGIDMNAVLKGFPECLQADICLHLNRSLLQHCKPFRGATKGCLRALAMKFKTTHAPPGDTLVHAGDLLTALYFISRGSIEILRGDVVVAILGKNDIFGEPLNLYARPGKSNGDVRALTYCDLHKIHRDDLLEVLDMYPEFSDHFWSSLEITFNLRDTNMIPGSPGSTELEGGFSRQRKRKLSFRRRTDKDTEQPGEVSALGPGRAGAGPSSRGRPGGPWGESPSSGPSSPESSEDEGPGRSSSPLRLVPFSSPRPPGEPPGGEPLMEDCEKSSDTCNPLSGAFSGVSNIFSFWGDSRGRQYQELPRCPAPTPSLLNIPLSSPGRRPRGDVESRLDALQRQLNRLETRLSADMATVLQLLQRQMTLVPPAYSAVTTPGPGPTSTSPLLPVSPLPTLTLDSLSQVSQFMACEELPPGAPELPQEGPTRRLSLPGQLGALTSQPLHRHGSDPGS", "test": "Inhibition test of hERG potassium channel of heart (patch clamp)", "assay_type": "cell-based", "conditions": "for hERG current inhibition ratio % / IC50: n 3; for inhibitory effect on the hERG potassium channel (judged by general standard): judged by the standard of b169; for IC50: patch clamp", "excerpt": "An inhibitory effect of the tested compound on hERG was judged by a general standard (Roche O. et al. ChemBioChem. 2002, 3:455-459.):\nWhen a hERG semi-inhibitory concentration of a medicine exceeded about 30 times of a peak concentration thereof in blood, the concentration was in a relatively safe range (Redfernelt al, Cardiovascular Research, 58, 32-45 (2003))."}, "SD rats": {"test_system": "SD rats", "excerpt": "The test was a single-dose toxicity test of SD rats by intragastric administration through mouth."}, "[2]": {"test_system": "MM.1S human multiple myeloma SCID mouse transplanted tumor", "test": "Pharmacodynamic test, SCID mouse transplanted tumor model", "assay_type": "in vivo", "conditions": "0.0166 mmol/kg intragastric", "experimental": "In the experiment, a SCID mouse transplanted tumor model of a human multiple myeloma cell line MM.1S was used. Specific modeling steps were as follows: frozen MM.1S cells were resuscitated and cultured in vitro according to a routine, and the cells were collected in a logarithmic growth phase, and diluted with PBS to form a tumor cell suspension with a concentration of 5×10^7/ml. […] About 1 week to 2 weeks after injection, the mass was palpable in axillary, and in vivo passage was performed when a tumor volume was larger than 500 mm^3. After the mouse was killed by a neck pulling method, a body surface was disinfected, skin was cut open, aseptic operation was performed, a tumor tissue was peeled off from an axillary subcutaneous tissue, a fibrous capsule was removed, and the tumor was taken out. The tumor was washed clean in normal saline, and then cut, and after removing the central necrotic part, the tumor tissue with good growth, reddish color and fish flesh shape was selected, then was cut into 1 mm×1 mm×1 mm small pieces, and placed in normal saline for later use. The cut tumor was placed in a mouth of a No. 18 trocar, iodized cotton was used to disinfect the side of the armpit close to the back of the mouse, and local inoculation was performed. The transplanted tumor used in the test was the 4th generation of in vivo passage. When the tumor volume of most SCID mice of in vivo passage was larger than 100 mm^3, the tumor volume was measured and calculated, and the mice were randomly grouped according to the tumor volume.\nThe administration mode was intragastric administration through mouth, with an administration volume of 10 ml/kg. The model control group was given the same volume of solvent intragastrically. The mice were all intragastrically administrated through mouth twice a week for a total of 5 times, i.e., the mice were administrated at the 1st, 5th, 8th, 12th and 15th days of the experiment, with a duration of 18 days.\nDoses of different tested samples were equimolar, with a specific dose of 0.0166 mmol/kg; and the model control group was only given normal saline. The medicines were 8b and 8l, as well as Ixazomib Citrate (MLN9708) and Ixazomib (MLN2238).\nOn the 5th, 8th, 12th, 15th and 18th days after administration, a short diameter (a) and a long diameter (b) of the tumor of each mouse were measured with a vernier caliper, and the tumor volume was calculated according to a formula (a^2×b)/2. A relative tumor volume (RTV) was calculated based on the tumor volume measured and calculated, RTV=Vt/V0. V0 was the tumor volume at random grouping (i.e., d0) and Vt was the tumor volume at each measurement (i.e., dn). A relative tumor proliferation rate of an anti-tumor activity evaluation index was calculated according to the following formula: relative tumor proliferation rate T/C (%): […]\n(Note: TRTV was a RTV of the treatment group; and CRTV was a RTV of the model control group. An evaluation standard of a curative effect was T/C %≤40%, and the medicine was effective when P<0.05 after statistical treatment).\nAfter weighing and measuring the tumor on the 18th day, all animals were sacrificed, and the tumor was taken and weighed."}, "[3]": {"conditions": "dose 2, 0.001662 mmol/kg single intragastric dose, 6 female rats, 14 days observation"}, "[4]": {"conditions": "dose 2, 0.001662 mmol/kg single intragastric dose, 6 male rats, 14 days observation"}, "[5]": {"conditions": "dose 4, 0.00277 mmol/kg single intragastric dose, 6 female rats, 14 days observation"}, "[6]": {"conditions": "dose 4, 0.00277 mmol/kg single intragastric dose, 6 male rats, 14 days observation"}},
  "note": "Like-named read-outs stand apart in the source and are kept apart here.",
  "data": [
    {"smiles": "CC(C)C[C@H](NC(=O)CNC(=O)c1cc(Br)ccc1Cl)B1OC(=O)c2ccccc2O1", "note": "[compound 8a]", "values": [
      {"measurement": "stability under high-temperature and high-humidity accelerated test condition", "setting": "[1]", "result": "better stabilities"},
      {"measurement": "hERG current inhibition ratio %", "setting": "hERG potassium channel; 0.3 μM", "result": "1.47% ±"},
      {"measurement": "hERG current inhibition ratio %", "setting": "hERG potassium channel; 1 μM", "result": "5.53% ±"},
      {"measurement": "hERG current inhibition ratio %", "setting": "hERG potassium channel; 3 μM", "result": "4.36% ±"},
      {"measurement": "hERG current inhibition ratio %", "setting": "hERG potassium channel; 10 μM", "result": "11.24% ±"},
      {"measurement": "hERG current inhibition ratio %", "setting": "hERG potassium channel; 30 μM", "result": "7.86% ±"},
      {"measurement": "inhibitory effect on the hERG potassium channel (judged by general standard)", "setting": "hERG potassium channel", "result": "no inhibitory effect"},
      {"measurement": "IC50", "setting": "hERG potassium channel", "result": "> 30", "unit": "µM"}
    ]},
    {"smiles": "CC(C)C[C@H](NC(=O)CNC(=O)c1cc(Br)ccc1Cl)B1OC(=O)[C@@H](c2ccccc2)O1", "note": "[compound 8b, 2-chloro-5-bromo-N-[2-({(1R)-3-methyl-1-[(5R)-4-oxo-5-phenyl-1,3,2-dioxaborolan-2-yl]butyl}amino)-2-oxoethyl]benzamide]", "values": [
      {"measurement": "Female Suvival", "setting": "SD rats; dose 1, 0.001108 mmol/kg single intragastric dose, 6 female rats, 14 days observation", "result": 6},
      {"measurement": "Male Suvival", "setting": "SD rats; dose 1, 0.001108 mmol/kg single intragastric dose, 6 male rats, 14 days observation", "result": 6},
      {"measurement": "Female Death", "setting": "SD rats; [3]", "result": 0},
      {"measurement": "Female Suvival", "setting": "SD rats; [3]", "result": 6},
      {"measurement": "Male Death", "setting": "SD rats; [4]", "result": 0},
      {"measurement": "Male Suvival", "setting": "SD rats; [4]", "result": 6},
      {"measurement": "Female Suvival", "setting": "SD rats; dose 3, 0.002216 mmol/kg single intragastric dose, 6 female rats, 14 days observation", "result": 6},
      {"measurement": "Male Suvival", "setting": "SD rats; dose 3, 0.002216 mmol/kg single intragastric dose, 6 male rats, 14 days observation", "result": 6},
      {"measurement": "Female Death", "setting": "SD rats; [5]", "result": 2},
      {"measurement": "Female Suvival", "setting": "SD rats; [5]", "result": 4},
      {"measurement": "Male Death", "setting": "SD rats; [6]", "result": 0},
      {"measurement": "Male Suvival", "setting": "SD rats; [6]", "result": 6},
      {"measurement": "maximum tolerance dose", "setting": "SD rats; female rats, single intragastric dose", "result": 0.002216, "unit": "mmol/kg"},
      {"measurement": "Female Death", "setting": "SD rats; female, rat, in vivo, 0.001108 mmol/kg, 14 days", "result": 0},
      {"measurement": "Female Death", "setting": "SD rats; female, rat, in vivo, 0.002216 mmol/kg, 14 days", "result": 0},
      {"measurement": "Male Death", "setting": "SD rats; male, rat, in vivo, 0.001108 mmol/kg, 14 days", "result": 0},
      {"measurement": "Male Death", "setting": "SD rats; male, rat, in vivo, 0.002216 mmol/kg, 14 days", "result": 0},
      {"measurement": "stability under high-temperature and high-humidity accelerated test condition", "setting": "[1]", "result": "better stabilities"},
      {"measurement": "inhibitory effect on the hERG potassium channel (judged by general standard)", "setting": "hERG potassium channel", "result": "no inhibitory effect"},
      {"measurement": "IC50", "setting": "hERG potassium channel", "result": "> 30", "unit": "µM"},
      {"measurement": "inhibition of tumor growth (in words)", "setting": "[2]; stronger than 8l, MLN9708, MLN2238 (p<0.01)", "result": "significantly inhibited tumor growth"},
      {"measurement": "Tumor weight", "setting": "[2]; after the 18th day, X ± SD", "result": "0.028 ± 0.025", "unit": "g"}
    ]}
  ]
}
